From publication PMC10730845, “Endoxifen downregulates AKT phosphorylation through protein kinase C beta 1 inhibition in ERα+ breast cancer” (NPJ Breast Cancer, 2023)
“And” between values parts separate entries of the source, which are not always exact repeats. Equal entries are not always repeated. Where two headings read alike, the source gives them in different places.

Assays:
MCF7AC1 cells = experiment: IncuCyte Annexin V apoptosis assay, MCF7AC1; assay type: cell-based, human; conditions: CSS medium, 48 h
Description: MCF7AC1 and T47D-LTED cells were plated at a density of 2000 cells per well in CSS medium for 24 h. Cells were then co-treated for 48 h with vehicle or drug, IncuCyte Annexin V green reagent (#4642, 1:300), an early-stage apoptosis marker, and IncuCyte NucLight rapid red reagent (#4717, 1:500), a dye that stains all cell nuclei red, in CSS medium. MCF7AC1^caAKT cells were plated at a cell density of 2000 cells per well in CSS medium in the absence or presence of cumate for 48 h and then co-treated with vehicle or drug, Annexin V green and NucLight rapid red reagents in the absence or presence of cumate for an additional 48 h in CSS medium.

[1] = mice, cited from earlier work; for Cmax: read-out: Plasma Cmax
[2] = tested on: PKCβ1 and AKT^Ser473 phosphorylation in MDAMB231 cells; experiment: Immunoblot of PKCβ1 and pAKT^Ser473, MDAMB231; assay type: cell-based, human; conditions: 5 µM, 2 h pretreatment, 100 nM insulin 1 h
From the text: To determine whether the observed effects of ENDX on PKCβ1 degradation and AKT^Ser473 phosphorylation inhibition are dependent on the presence of ERα, we additionally evaluated ENDX effects on PKCβ1 degradation and AKT^Ser473 phosphorylation in the ER negative (ER-) MDAMB231 breast cancer cells and nonbreast HEK293F cells, a human embryonic kidney cell line, both of which express higher amounts of PKCβ1 compared to ERα+ MCF7AC1 cells (Supplementary Fig. 5a). […] To determine whether the addition of ERα to the MDAMB231 cell line could facilitate ENDX effects on PKCβ1, we performed doxycycline (dox)-induced ERα protein expression in MDAMB231 cells and evaluated ENDX effects on PKCβ1 using the above-mentioned experimental conditions. […] Additionally, we pretreated MDAMB231 and HEK293F cells with or without 5 µM ENDX for 1 h followed by 0 or 200 nM PMA treatment for 20 min and evaluated effects on PKCβ1.
Supplementary Figure 5. Effects of ENDX on PKCβ1, phospho -PKCB1Ser661 and phospho-AKTSer473 expression levels in ERα- breast cancer cells. a, Basal expression of PKCβ1 and ERα in the indicated cell lines. […]

PKC beta 2 (PKCb2) = PKC beta 2 (PKCb2) (Homo sapiens, UniProt P05771); experiment: In vitro kinase assay, PKC beta 2; assay type: biochemical; conditions: 10 μM ATP
From the text: Supplementary Table 4. In vitro kinase assay showing the IC 50 concentration of ENDX and
of the 12 PKC family members.
(1 picture or pasted object on this page, not shown here)

MCF7AC1 xenograft tumors = experiment: Immunoblot of MCF7AC1 xenograft tumor lysates after in vivo treatment; parameters: species or system mice; conditions: four weeks
Description: Protein lysates were prepared using the RIPA lysis buffer system (ChemCruz #sc-24948) and quantified using the DC^TM Protein Assay reagents (Bio-Rad #5000112). Equal amounts of protein lysates were separated on 10% Criterion gels (Bio-Rad #3450112), transferred to PVDF membranes (Bio-Rad #1620177), blocked in TBST-5% milk and probed with primary antibodies listed in Supplementary Table 5, at the indicated dilutions. Membranes were incubated with HRP-conjugated anti-rabbit (CST #7074) or anti-mouse (CST #7076) secondary antibodies and visualized using chemiluminescent West Pico (Thermo Scientific #34580) or West Femto (Thermo Scientific #34096) reagents and a Li-Cor Odyssey® XF imager. Protein lysates from the MCF7AC1 xenograft model were obtained from a previous study. Quantitation of the protein bands signal intensity was performed using the NIH ImageJ image analysis software (https://imagej.nih.gov/ij///index.html). For the quantitation of the phospho protein levels, we first normalized total protein levels to β-actin loading control and used these values to normalize the phospho protein levels and compared change in protein expression levels relative to vehicle control normalized to 1.0. For the quantitation of total protein levels, we normalized the total protein levels to β-actin and compared change in expression levels relative to vehicle control normalized to 1.0. All blots were processed in parallel and derived from the same experiments. Unprocessed immunoblot images are provided in Supplementary Figs. 9–13.
Supplementary Figure 2. […]
Supplementary Figure 6. […]
MK-2206 in CSS medium for 24 hours. IB assay of pAKTSer473, AKT, PARP, cleaved PARP and
β-actin. d, MCF7AC1 xenograft protein lysates were treated with the indicated drugs for four
weeks. […]
ANOVA for figs. (a), (b), (g), (h) and (i) and unpaired t test for fig. (e).

[3] = phase I, cited from earlier work; for Cmax: read-out: Peak serum concentration (Cmax)
[4] = tested on: ERα+/HER2- metastatic breast cancer; conditions: cited from earlier work
MDAMB231 cells = experiment: Crystal violet growth assay, MDAMB231; assay type: cell-based, human; conditions: 0–10 µM tested, day seven
From the text: Supplementary Figure 8. […]
ANOVA. b, Effects of ENDX on cell proliferation at the indicated concentrations on day seven of
treatment. […]

Chain of PKC beta 2 (PKCb2) (P05771 1-673 isoform P05771-2): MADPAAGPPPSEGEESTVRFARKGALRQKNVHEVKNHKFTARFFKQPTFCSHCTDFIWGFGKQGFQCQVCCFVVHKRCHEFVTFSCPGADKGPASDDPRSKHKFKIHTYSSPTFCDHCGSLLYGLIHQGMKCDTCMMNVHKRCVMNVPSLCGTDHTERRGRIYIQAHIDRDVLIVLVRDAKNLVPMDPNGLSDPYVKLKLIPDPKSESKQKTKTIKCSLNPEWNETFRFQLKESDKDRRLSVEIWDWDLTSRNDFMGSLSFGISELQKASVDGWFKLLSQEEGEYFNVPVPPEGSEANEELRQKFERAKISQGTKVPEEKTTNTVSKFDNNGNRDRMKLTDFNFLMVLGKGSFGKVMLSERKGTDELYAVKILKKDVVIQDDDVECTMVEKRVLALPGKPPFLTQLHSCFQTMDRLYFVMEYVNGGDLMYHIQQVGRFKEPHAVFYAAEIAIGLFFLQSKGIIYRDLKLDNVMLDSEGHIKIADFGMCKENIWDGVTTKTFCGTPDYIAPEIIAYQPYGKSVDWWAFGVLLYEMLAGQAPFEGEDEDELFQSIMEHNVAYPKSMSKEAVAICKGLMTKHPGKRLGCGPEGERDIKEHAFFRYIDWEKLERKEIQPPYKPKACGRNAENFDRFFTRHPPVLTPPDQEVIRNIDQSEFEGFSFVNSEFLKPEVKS

CC/C(=C(\c1ccc(O)cc1)c1ccc(OCCNC)cc1)c1ccccc1 [ENDX, Z-endoxifen]
Concentrations that induced apoptosis (MCF7AC1 cells; 0 to 10 µM tested): ≥ 2.5 µM
Effect on apoptosis (MCF7AC1 cells; ENDX 5 µM, TAM 0.1 µM, ICI 0.1 µM): induced apoptosis
Plasma concentration ([1]; 25 mg/kg for five consecutive days, 25 mg/kg): 73.1 ± 16.8 ng/ml and 0.20 ± 0.04 µM
Plasma concentration ([1]; 100 mg/kg for five consecutive days, 100 mg/kg): 1700 ± 60 ng/ml and 4.55 ± 0.16 µM
Plasma Cmax ([1]; single dose 25 mg/kg): 103 ± 97 ng/mL
Cmax ([1]; single dose 25 mg/kg): 280 ± 260 nM
Plasma Cmax ([1]; single dose 75 mg/kg): 660 ± 511 ng/mL
Cmax ([1]; single dose 75 mg/kg): 1770 ± 1370 nM
Effect on PKCβ1 protein levels [2]: did not impact PKCβ1 protein levels
Effect on insulin induced AKT^Ser473 phosphorylation [2]: did not inhibit this phosphorylation
IC50 (PKC beta 2 (PKCb2)): 43.3 µM
Effect on AKT phosphorylated substrates in tumors (MCF7AC1 xenograft tumors; 75 mg/kg): reduced the levels of AKT phosphorylated substrates
Effect on AKT^Thr308 phosphorylation in tumors (MCF7AC1 xenograft tumors; 75 mg/kg): no appreciable impact on AKT^Thr308 phosphorylation
Effect on AKT^Ser473 phosphorylation in tumors (MCF7AC1 xenograft tumors; 75 mg/kg, vs control treatment): attenuated AKT^Ser473 phosphorylation
Dose increasing PARP cleavage in tumors (MCF7AC1 xenograft tumors; not at 25 mg/kg): 75 mg/kg
Peak serum concentration (Cmax) ([3]; Day 28, 80 mg/day): 913 ± 142 ng/mL
Cmax ([3]; Day 28, 80 mg/day): 2440 ± 380 nM
Peak serum concentration (Cmax) ([3]; Day 28, 200 mg/day): 1641 ± 830 ng/mL
Cmax ([3]; Day 28, 200 mg/day): 4390 ± 2220 nM
PFS hazard ratio (HR) ENDX vs TAM, CDK4/6i naïve patients ([4]; 95% CI 0.22–0.80): 0.42
PFS hazard ratio (HR) ENDX vs TAM, overall ([4]; 95% CI 0.49–1.22): 0.77
PFS in CDK4/6 inhibitor naïve patients ([4]; CDK4/6i naïve): 7.2 m
Progression free survival (PFS) overall ([4]; women with ERα+/HER2- metastatic breast cancer progressed on endocrine therapy): 4.3 m
Concentrations at which growth was inhibited (MDAMB231 cells): ≥ 7.5 µM
